The text below walks through data of US4999374A, “Veterinary treatment” (priority 1987, dated 1991).

The structures appear in SMILES notation. “And” between values parts separate entries of the source, which are not always exact repeats. Identical values can stand only once. Like-named read-outs stand apart in the source and are kept apart here. Some results are limits rather than exact numbers.

In assay [1] the test system is T. hyodysenteriae. As to the kind of experiment: Comparative efficacy of M139603 and lasalocid in experimentally infected mice (Example 4, Table 4). The format is in vivo, mice (strain MF-1). As to conditions: for Mean (log10) viable treponemes per gram caecal contents / Viable treponemes per gram caecal contents: 5 days; for Mean (log10) viable treponemes per gram caecal contents: group mean (table); for Viable treponemes per gram caecal contents: individual mice. An excerpt:
(§1) The infection leads to varying degrees of caecitis, the lesions of which are apparent in animals killed on or about the sixth day post-infection. Caecal specimens examined by bacteriological culture techniques applicable for enumeration of organisms reveal the presence of high populations of T.hyodysenteriae. This disease-model was used in experiments to compare the efficacy of M139603 with that of salinomycin, lasalocid and monensin in suppressing the infection.
(§2) In this study, the efficacy of M139603 was tested at 25 ppm feed and that of monensin (Eli Lilly) at 50 or 100 ppm. Groups of infected mice, five per group, were offered the drugs in the feed on five continuous days before killing. Caecal materials were subjected to bacteriological examination to enumerate the populations of viable treponemes per gram of material. […] The group mean in respect of the unmedicated groups was 7.9 cfu/g.
In this study, the efficacy of M139603 was tested at 20 ppm feed and that of lasalocid (Hoffman la Roche) at 20, 40 and 80 ppm. The test procedures were similar to those above except for the size of the inoculum of T.hyodysenteriae (1.2×10^7 cfu) used in infecting each mouse. […] The mean (log10) counts of viable treponemes found in the caecal contents of the various groups were: 2.5 cfu/g caecum (139603 at 20 ppm), 7.35 cfu (lasalocid at 20 ppm), 7.45 cfu (lasalocid at 40 ppm), 3.81 cfu (lasalocid at 80 ppm) and 8.50 cfu (unmedicated control).

Assay [2] concerns T. hyodysenteriae. As to the kind of experiment: MIC of M139603 against thirteen T. hyodysenteriae isolates vs salinomycin and dimetridazole (Example 1, Table 1). Format: cell-based, Treponema hyodysenteriae. The conditions noted are these: Brachyspira hyodysenteriae. Here is the method:
The minimum inhibitory concentration of M139603 was tested in parallel with dimetridazole (May & Baker) and the growth-promoting polyether antibiotic salinomycin (Hoechst) against thirteen strains of T. hyodysenteriae.

For assay [3], the system named is T. hyodysenteriae. Put plainly: Comparative efficacy of M139603 and monensin in experimentally infected mice (Example 2, Table 2). Format: in vivo, mice (strain MF-1). The conditions noted are these: for Mean (log10) viable treponemes per gram caecum & contents / Viable treponemes per gram caecum & contents: 5 days; for Mean (log10) viable treponemes per gram caecum & contents: group mean; for Viable treponemes per gram caecum & contents: individual mice.
Source text: as §1, §2

Assay [4] deals with T. hyodysenteriae. As to the kind of experiment: Comparative efficacy of M139603 and salinomycin in experimentally infected mice (Example 3, Table 3). The conditions noted are these: for Mean (log10) viable treponemes per gram caecum & contents / Viable treponemes per gram caecum & contents: 5 days; for Mean (log10) viable treponemes per gram caecum & contents: group mean; for Viable treponemes per gram caecum & contents: individual mice. Format: in vivo, mice (strain MF-1).
Source text: as §1, §2
In this study, the efficacy of M139603 was tested at 30 ppm and that of salinomycin at 30, 40 or 60 ppm feed. The mouse-groups and test-procedureswere simi-ar to those applied under Example 2 above.

As for `CC[C@@H](C(=O)[C@@H](C)[C@@H](O)[C@H](C)CCc1ccc(C)c(O)c1C(=O)O)[C@H]1O[C@](CC)([C@H]2CC[C@](O)(CC)[C@H](C)O2)C[C@@H]1C` [Lasalocid, lasalocid], the entries for the “Mean (log10) viable treponemes per gram caecal contents” value with T. hyodysenteriae [1] (20 ppm feed), in the assay with T. hyodysenteriae [1] (40 ppm feed) and in the assay on T. hyodysenteriae [1] (80 ppm feed) were 7.35 log10 per gram, 7.45 log10 per gram and 3.81 log10 per gram, respectively. The “Viable treponemes per gram caecal contents” value was 3.2 × 10^8 per gram and 1.1 × 10^4 per gram and 2.9 × 10^7 per gram and 1.7 × 10^8 per gram with T. hyodysenteriae [1] (20 ppm feed); 3.0 × 10^ 6 per gram and 1.4 × 10^8 per gram and 2.1 × 10^8 per gram and 1.7 × 10^7 per gram and 1.2 × 10^7 per gram in the assay on T. hyodysenteriae [1] (40 ppm feed); 4.0 × 10^4 per gram and 0 per gram and 1.0 × 10^6 per gram and 1.3 × 10^5 per gram and 2.3 × 10^3 per gram with T. hyodysenteriae [1] (80 ppm feed). For the same molecule, the “Mean (log10) count of viable treponemes in caecal contents” value in the assay on T. hyodysenteriae [1] (20 ppm feed) is 7.35 cfu/g caecum; with T. hyodysenteriae [1] (40 ppm feed), 7.45 cfu/g caecum; with T. hyodysenteriae [1] (80 ppm feed), 3.81 cfu/g caecum.
Turning to `Cc1ncc([N+](=O)[O-])n1C` [Dimetridazole, dimetridazole], the MIC with T. hyodysenteriae [2] (isolate B78, read-out: MIC) amounted to 3 µg/mL; with T. hyodysenteriae [2] (isolate S82/6, read-out: MIC), 30 µg/mL; in the assay with T. hyodysenteriae [2] (isolate S82/7, read-out: MIC), 30 µg/mL; with T. hyodysenteriae [2] (isolate S83/1, read-out: MIC), 30 µg/mL; in the assay on T. hyodysenteriae [2] (isolate S83/2, read-out: MIC), 3 µg/mL; in the assay with T. hyodysenteriae [2] (isolate S83/5, read-out: MIC), 3 µg/mL. The MIC in the assay with T. hyodysenteriae [2] (isolate S85/1, read-out: MIC) was 30 µg/mL; in the assay with T. hyodysenteriae [2] (isolate S85/2, read-out: MIC) it was 10 µg/mL; in the assay on T. hyodysenteriae [2] (isolate S85/3, read-out: MIC), 10 µg/mL; in the assay on T. hyodysenteriae [2] (isolate S85/8, read-out: MIC), 3 µg/mL; in the assay with T. hyodysenteriae [2] (isolate S85/9, read-out: MIC) it was 5 µg/mL; in the assay on T. hyodysenteriae [2] (isolate S86/1, read-out: MIC), less than 0.5 µg/mL. Moreover, the MIC was determined as 10 µg/mL in the assay with T. hyodysenteriae [2] (isolate S86/2, read-out: MIC) and 12.9 µg/mL in the assay on T. hyodysenteriae [2] (mean of 13 strains (table), read-out: Mean MIC).
Turning to `CC[C@@]1([C@@H]2O[C@@H]([C@H]3O[C@@](O)(CO)[C@H](C)C[C@@H]3C)C[C@@H]2C)CC[C@H]([C@]2(C)CC[C@]3(C[C@H](O)[C@@H](C)[C@@H]([C@@H](C)[C@@H](OC)[C@H](C)C(=O)O)O3)O2)O1` [Monensin, monensin], in the assay on T. hyodysenteriae [3] (50 ppm feed), the “Animals yielding high populations of viable treponema” value is recorded as “four out of five”; the Suppression of infection entry was “ineffective”; the “Mean (log10) viable treponemes per gram caecum & contents” value was 5.2 log10 per gram; the “Viable treponemes per gram caecum & contents” value was 1.74 × 10^8 per gram and 2.90 × 10^7 per gram and 1.0 × 10^5 per gram and negative and 2.0 × 10^5 per gram. Further, the “Populations of viable treponema (range)” value with T. hyodysenteriae [3] (50 ppm feed, four of five animals) is listed as 1.0×10^5 -1.7×10^8 cfu/g. For the same molecule, in the assay on T. hyodysenteriae [3] (50 ppm feed, log10), the “Group mean (log10) viable treponema” value was 5.2 cfu/g caecum. In the assay with T. hyodysenteriae [3] (100 ppm feed), the Suppression of infection entry is on record as “suppressed the infection” and the “Mean (log10) viable treponemes per gram caecum & contents” value is recorded as 0 log10 per gram. The “Viable treponemes per gram caecum & contents” value with T. hyodysenteriae [3] (100 ppm feed, limit of detection <1.0 × 10^2) is given as “negative”.
Consider `CC[C@@H](C(=O)[C@@H](C)[C@@H](O)[C@H](C)[C@@H]1O[C@@H]([C@@H](CC)C(=O)O)CC[C@@H]1C)[C@H]1O[C@]2(C=C[C@@H](O)[C@]3(CC[C@@](C)([C@H]4CC[C@](O)(CC)[C@H](C)O4)O3)O2)[C@H](C)C[C@@H]1C` [Salinomycin, salinomycin], for which the minimum inhibitory concentration (MIC) in the assay on T. hyodysenteriae [2] (isolate B78) was 1 µg/mL; with T. hyodysenteriae [2] (isolate S82/6), 0.75 µg/mL; in the assay on T. hyodysenteriae [2] (isolate S82/7) it was 0.75 µg/mL; in the assay on T. hyodysenteriae [2] (isolate S83/1), 0.75 µg/mL; in the assay on T. hyodysenteriae [2] (isolate S83/2) it was 1 µg/mL; in the assay with T. hyodysenteriae [2] (isolate S83/5), less than 0.1 µg/mL. In addition, the MIC with T. hyodysenteriae [2] (isolate S85/1) was 0.75 µg/mL; with T. hyodysenteriae [2] (isolate S85/2), 1 µg/mL; with T. hyodysenteriae [2] (isolate S85/3), 0.75 µg/mL; with T. hyodysenteriae [2] (isolate S85/8) it was 0.75 µg/mL; with T. hyodysenteriae [2] (isolate S85/9) it was 0.5 µg/mL; in the assay on T. hyodysenteriae [2] (isolate S86/1), less than 0.1 µg/mL. Also, the MIC in the assay on T. hyodysenteriae [2] (isolate S86/2) came to 0.75 µg/mL; in the assay with T. hyodysenteriae [2] (read-out: Mean MIC, mean of 13 strains (table)), 0.68 µg/mL. Besides, the Suppression of infection result with T. hyodysenteriae [4] (30, 40 or 60 ppm feed) is “failed to do so, even at 60 ppm”. The “Mean (log10) viable treponemes per gram caecum & contents” value was 3.86 log10 per gram in the assay with T. hyodysenteriae [4] (30 ppm feed), 6.03 log10 per gram in the assay with T. hyodysenteriae [4] (40 ppm feed) and 5.52 log10 per gram in the assay with T. hyodysenteriae [4] (60 ppm feed). The “Viable treponemes per gram caecum & contents” value in the assay on T. hyodysenteriae [4] (30 ppm feed) was “negative and 6.0 × 10^6 per gram and 5.4 × 10^5 per gram”; with T. hyodysenteriae [4] (40 ppm feed) it was 6.0 × 10^6 per gram and 1.8 × 10^6 per gram and 1.6 × 10^5 per gram and 4.3 × 10^5 per gram; with T. hyodysenteriae [4] (60 ppm feed) it was 1.3 × 10^7 per gram and 2.0 × 10^4 per gram and 1.0 × 10^6 per gram and 1.0 × 10^4 per gram and 1.5 × 10^6 per gram.

The term MIC denotes the least concentration at which growth counts as inhibited.
